Test results from US9512075B2 (OKAYAMA UNIVERSITY, priority 2012, dated 2016).
Values after ≈ are worked out from the molar mass of the structure shown. Read-outs that look alike come from different tables or passages of the source.

What was measured:
Type in all cases: cell-based
[1] = tested on: Clostridium perfringens PB6K strain; assay: microbe, parasite or virus in culture; conditions: Clostridium perfringens, PB6KSTRAIN, read-out: MIC Clostridium perfringens PB6K, PB6K strain; CD medium, 37° C. overnight, 10% CO2-containing anaerobic conditions
[2] = tested on: Escherichia coli BE1121 strain; assay: MIC for Escherichia coli BE1121 strain; conditions: Escherichia coli, BE1121STRAIN, read-out: MIC Escherichia coli BE1121
[3] = tested on: Enterococcus faecalis NCTC12201 strain (vancomycin-resistant Enterococcus: VRE); assay: MIC for Enterococcus faecalis NCTC12201 strain (VRE); conditions: read-out: MIC Enterococcus faecalis NCTC 12201 (VRE)
[4] = tested on: Staphylococcus aureus Smith strain; assay: MIC for Staphylococcus aureus Smith strain; conditions: read-out: MIC Straphyrococcus aureus Smith
[5] = tested on: Escherichia coli K-12 strain; assay: MIC for Escherichia coli K-12 strain; conditions: Escherichia coli, K12STRAIN, read-out: MIC Escherichia coli K12
[6] = tested on: Clostridium difficile JCM1296 strain; assay: microbe, parasite or virus in culture; conditions: Clostridioides difficile, JCM1296, read-out: MIC Clostridium difficile JCM1296
[7] = tested on: Staphylococcus aureus 209P strain; assay: MIC for Staphylococcus aureus 209P strain; conditions: Staphylococcus aureus, read-out: MIC Straphyrococcus aureus 209P
[8] = tested on: Staphylococcus aureus MRSA No. 17 (methicillin-resistant Staphylococcus aureus: MRSA); assay: MIC for Staphylococcus aureus MRSA No. 17; conditions: read-out: MIC Straphyrococcus aureus MRSA No. 17 (MRSA)
[9] = tested on: Enterococcus faecalis 5038 strain; assay: MIC for Enterococcus faecalis 5038 strain; conditions: read-out: MIC Enterococcus faecalis 5038
[10] = BE1121 strain, regular bouillon medium, 37° C. overnight, turbidity
[11] = NCTC12201 strain (VRE), Heart Infusion Broth medium, 37° C. overnight, turbidity
[12] = Smith strain, regular bouillon medium, 37° C. overnight, turbidity
[13] = K-12 strain, regular bouillon medium, 37° C. overnight, turbidity
[14] = 209P strain, regular bouillon medium, 37° C. overnight, turbidity
[15] = MRSA No. 17, regular bouillon medium, 37° C. overnight, turbidity
[16] = 5038 strain, Heart Infusion Broth medium, 37° C. overnight, turbidity

## CCCCCCCCCCOCC(O)=C1C(=O)N(C(=O)Nc2ccc(F)cc2)c2ccccc21 [A041, N-(4-fluorophenylaminocarbonyl)-3-decyloxyacetyl-2-oxyindole]
[1]
  MIC: 8 mg/L (≈ 17.1 µM)
[2]; [10]
  MIC: 256 mg/L (≈ 546 µM)
[3]; [11]
  MIC: 4 mg/L (≈ 8.54 µM)
[4]; [12]
  MIC: 4 mg/L (≈ 8.54 µM)
[5]; [13]
  MIC: 128 mg/L (≈ 273 µM)
[6]
  MIC: 0.5 mg/L (≈ 1.07 µM)
[7]; [14]
  MIC: 256 mg/L (≈ 546 µM)
[8]; [15]
  MIC: 256 mg/L (≈ 546 µM)
[9]; [16]
  MIC: 2 mg/L (≈ 4.27 µM)

## CCCCCCCCCC(O)=C1C(=O)Nc2ccccc21 [A001, 3-decanoyl-2-oxyindole]
[2]; [10]
  MIC: 256 mg/L (≈ 891 µM)
[3]; [11]
  MIC: 16 mg/L (≈ 55.7 µM)
[4]; [12]
  MIC: 32 mg/L (≈ 111 µM)
[5]; [13]
  MIC: 256 mg/L (≈ 891 µM)
[7]; [14]
  MIC: 16 mg/L (≈ 55.7 µM)
[8]; [15]
  MIC: 32 mg/L (≈ 111 µM)
[9]; [16]
  MIC: 16 mg/L (≈ 55.7 µM)

## CCCCCCCCCC(=O)N1C(=O)C(=C(C)O)c2ccccc21 [A022, N-decanoyl-3-acetyl-2-oxyindole]
[1]
  MIC: 4 mg/L (≈ 12.1 µM)
[2]; [10]
  MIC: 16 mg/L (≈ 48.6 µM)
[3]; [11]
  MIC: 1 mg/L (≈ 3.04 µM)
[4]; [12]
  MIC: 2 mg/L (≈ 6.07 µM)
[5]; [13]
  MIC: 128 mg/L (≈ 389 µM)
[6]
  MIC: 0.25 mg/L (≈ 0.759 µM)
[7]; [14]
  MIC: 8 mg/L (≈ 24.3 µM)
[8]; [15]
  MIC: 4 mg/L (≈ 12.1 µM)
[9]; [16]
  MIC: 1 mg/L (≈ 3.04 µM)

## CCCCCCCCCC(O)=C1C(=O)N(C(=O)Nc2ccc(F)cc2)c2ccccc21 [A042, N-(4-fluorophenylaminocarbonyl)-3-decanoyl-2-oxyindole]
[1]
  MIC: 1 mg/L (≈ 2.36 µM)
[2]; [10]
  MIC: 256 mg/L (≈ 603 µM)
[3]; [11]
  MIC: 4 mg/L (≈ 9.42 µM)
[4]; [12]
  MIC: 0.5 mg/L (≈ 1.18 µM)
[5]; [13]
  MIC: 256 mg/L (≈ 603 µM)
[6]
  MIC: < 0.125 mg/L
[7]; [14]
  MIC: 256 mg/L (≈ 603 µM)
[8]; [15]
  MIC: 256 mg/L (≈ 603 µM)
[9]; [16]
  MIC: 2 mg/L (≈ 4.71 µM)

## CCCCCCCCCC(=O)c1c(O)c2cc(C)ccc2oc1=O [B012, 3-decanoyl-6-methyl-4-hydroxycoumarin]
[1]
  MIC: 0.5 mg/L (≈ 1.51 µM)
[2]; [10]
  MIC: 256 mg/L (≈ 775 µM)
[3]; [11]
  MIC: 0.25 mg/L (≈ 0.757 µM)
[4]; [12]
  MIC: 0.5 mg/L (≈ 1.51 µM)
[5]; [13]
  MIC: 256 mg/L (≈ 775 µM)
[6]
  MIC: 0.25 mg/L (≈ 0.757 µM)
[7]; [14]
  MIC: 0.5 mg/L (≈ 1.51 µM)
[8]; [15]
  MIC: 0.5 mg/L (≈ 1.51 µM)
[9]; [16]
  MIC: 0.25 mg/L (≈ 0.757 µM)

## CCCCCCCCCC(=O)N1C(=O)/C(=C(\O)COC)c2ccccc21 [A049, N-decanoyl-3-methoxyacetyl-2-oxyindole]
[1]
  MIC: 0.5 mg/L (≈ 1.39 µM)
[2]; [10]
  MIC: 128 mg/L (≈ 356 µM)
[3]; [11]
  MIC: 0.5 mg/L (≈ 1.39 µM)
[4]; [12]
  MIC: 1 mg/L (≈ 2.78 µM)
[5]; [13]
  MIC: 256 mg/L (≈ 712 µM)
[6]
  MIC: 0.5 mg/L (≈ 1.39 µM)
[7]; [14]
  MIC: 256 mg/L (≈ 712 µM)
[8]; [15]
  MIC: 256 mg/L (≈ 712 µM)
[9]; [16]
  MIC: 0.5 mg/L (≈ 1.39 µM)

## CCCCCCCCCC(=O)N1C(=O)C(=C(O)CCCCCCCCC)c2ccccc21 [A005, 1,3-didecanoyl-2-oxyindole]
[1]
  MIC: 16 mg/L (≈ 36.2 µM)
[2]; [10]
  MIC: 128 mg/L (≈ 290 µM)
[3]; [11]
  MIC: 32 mg/L (≈ 72.5 µM)
[4]; [12]
  MIC: 64 mg/L (≈ 145 µM)
[5]; [13]
  MIC: 128 mg/L (≈ 290 µM)
[6]
  MIC: 2 mg/L (≈ 4.53 µM)
[7]; [14]
  MIC: 32 mg/L (≈ 72.5 µM)
[8]; [15]
  MIC: 32 mg/L (≈ 72.5 µM)
[9]; [16]
  MIC: 32 mg/L (≈ 72.5 µM)

## CCCCCCCCCC(O)=C1C(=O)N(C)c2ccccc21 [A007, N-methyl-3-decanoyl-2-oxyindole]
[1]
  MIC: 8 mg/L (≈ 26.5 µM)
[2]
  MIC: 256 mg/L (≈ 849 µM)
[3]; [11]
  MIC: 15 mg/L (≈ 49.8 µM)
[4]; [12]
  MIC: 8 mg/L (≈ 26.5 µM)
[5]
  MIC: 256 mg/L (≈ 849 µM)
[6]
  MIC: 2 mg/L (≈ 6.64 µM)
[7]; 209P
  MIC: 32 mg/L (≈ 106 µM)
[8]; [15]
  MIC: 128 mg/L (≈ 425 µM)
[9]; [16]
  MIC: 32 mg/L (≈ 106 µM)

## CCCCc1ccc(COCC(=O)c2c(O)c3ccccc3oc2=O)cc1 [B024, 3-(4-butylphenylmethoxyl)acetyl-4-hydroxycoumarin]
[1]
  MIC: 1 mg/L (≈ 2.73 µM)
[2]; [10]
  MIC: 2 mg/L (≈ 5.46 µM)
[3]
  MIC: 2 mg/L (≈ 5.46 µM)
[4]
  MIC: 8 mg/L (≈ 21.8 µM)
[5]; [13]
  MIC: 256 mg/L (≈ 699 µM)
[6]
  MIC: 0.25 mg/L (≈ 0.682 µM)
[7]; [14]
  MIC: 4 mg/L (≈ 10.9 µM)
[8]; MRSA
  MIC: 64 mg/L (≈ 175 µM)
[9]; 5038STRAIN
  MIC: 2 mg/L (≈ 5.46 µM)

## CCCCCCCCCC(=O)N1C(=O)/C(=C(\O)c2ccccc2)c2cc(F)ccc21 [A052, N-decanoyl-3-benzoyl-5-fluoro-2-oxyindole]
[1]
  MIC: 0.5 mg/L (≈ 1.22 µM)
[2]; [10]
  MIC: 128 mg/L (≈ 313 µM)
[3]
  MIC: 0.5 mg/L (≈ 1.22 µM)
[4]
  MIC: 0.5 mg/L (≈ 1.22 µM)
[5]; [13]
  MIC: 256 mg/L (≈ 625 µM)
[6]
  MIC: 0.5 mg/L (≈ 1.22 µM)
[7]; [14]
  MIC: 64 mg/L (≈ 156 µM)
[8]; MRSA
  MIC: 64 mg/L (≈ 156 µM)
[9]; 5038STRAIN
  MIC: 0.25 mg/L (≈ 0.61 µM)

## CCCCCCCCCC(O)=C1C(=O)N(C(C)=O)c2ccc(Br)cc21 [A026, N-acetyl-5-bromo-3-decanoyl-2-oxyindole]
[1]
  MIC: 0.25 mg/L (≈ 0.612 µM)
[2]; [10]
  MIC: 8 mg/L (≈ 19.6 µM)
[3]
  MIC: < 0.125 mg/L
[4]; [12]
  MIC: 0.25 mg/L (≈ 0.612 µM)
[5]; [13]
  MIC: 128 mg/L (≈ 313 µM)
[6]
  MIC: < 0.125 mg/L
[7]; [14]
  MIC: 4 mg/L (≈ 9.8 µM)
[8]; [15]
  MIC: 4 mg/L (≈ 9.8 µM)
[9]; 5038STRAIN
  MIC: < 0.125 mg/L
